Results as given in ChEMBL document CHEMBL1201861, “Genomics of Drug Sensitity in Cancer screening data, Wellcome Trust Sanger Institute”.

Experiments:
[1] = test system: COLO-741; assay: cells; assay type: functional, cell-based, Homo sapiens; conditions: Homo sapiens, COLO-741
Description: SANGER: Inhibition of human COLO-741 cell growth in a cell viability assay.

[2] = test system: DMS-273; assay: cells; assay type: functional, cell-based, Homo sapiens; conditions: Homo sapiens, DMS-273
Description: SANGER: Inhibition of human DMS-273 cell growth in a cell viability assay.

[3] = test system: GCT; assay: cells; assay type: functional, cell-based, Homo sapiens; conditions: Homo sapiens, GCT;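 further: GCT cell line proliferation inhibition, read out with a cell viability assay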
Description: SANGER: Inhibition of human GCT cell growth in a cell viability assay.

[4] = test system: H4; assay: cells; assay type: functional, cell-based, Homo sapiens; conditions: Homo sapiens, H4
Description: SANGER: Inhibition of human H4 cell growth in a cell viability assay.

[5] = test system: HCC1419; assay: cells; assay type: functional, cell-based, Homo sapiens; conditions: Homo sapiens, HCC1419;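 further: growth inhibition of human HCC1419 cells, read out as cell viability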
Description: SANGER: Inhibition of human HCC1419 cell growth in a cell viability assay.

[6] = test system: HCC1569; assay: cells; assay type: functional, cell-based, Homo sapiens; conditions: Homo sapiens, HCC1569;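 further: growth inhibition of human HCC1569 cells, read out with a cell viability assay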
Description: SANGER: Inhibition of human HCC1569 cell growth in a cell viability assay.

[7] = test system: HCC1954; assay: cells; assay type: functional, cell-based, Homo sapiens; conditions: Homo sapiens, HCC1954;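 further: growth inhibition of human HCC1954 cells, read out with a cell viability assay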
Description: SANGER: Inhibition of human HCC1954 cell growth in a cell viability assay.

[8] = test system: HSC-2; assay: cells; assay type: functional, cell-based, Homo sapiens; conditions: Homo sapiens, HSC-2;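 further: growth inhibition of human HSC-2 cells, read out by a cell viability assay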
Description: SANGER: Inhibition of human HSC-2 cell growth in a cell viability assay.

[9] = test system: IMR-5; assay: cells; assay type: functional, cell-based, Homo sapiens; conditions: Homo sapiens, IMR-5;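 further: growth inhibition of human IMR-5 cells, read out with a cell viability assay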
Description: SANGER: Inhibition of human IMR-5 cell growth in a cell viability assay.

[10] = test system: KARPAS-422; assay: cells; assay type: functional, cell-based, Homo sapiens; conditions: Homo sapiens, KARPAS-422
Description: SANGER: Inhibition of human KARPAS-422 cell growth in a cell viability assay.

[11] = test system: KYSE-150 cell line; assay: cells; assay type: functional, cell-based, Homo sapiens; conditions: Homo sapiens, KYSE-150;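 further: growth inhibition of human KYSE-150 cells, read out with a cell viability assay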
Description: SANGER: Inhibition of human KYSE-150 cell growth in a cell viability assay.

[12] = test system: KYSE-410; assay: cells; assay type: functional, cell-based, Homo sapiens; conditions: Homo sapiens, KYSE-410;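 further: growth inhibition of KYSE-410 cells, measured through a cell viability readout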
Description: SANGER: Inhibition of human KYSE-410 cell growth in a cell viability assay.

[13] = test system: MDA-MB-361; assay: cells; assay type: functional, cell-based, Homo sapiens; conditions: Homo sapiens, MDA-MB-361
[14] = test system: MKN-28; assay: cells; assay type: functional, cell-based, Homo sapiens; conditions: Homo sapiens, MKN-28;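 further: cell viability assay read-out, IC50 reflects suppression of growth of human MKN-28 cells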
Description: SANGER: Inhibition of human MKN28 cell growth in a cell viability assay.

[15] = test system: NCI-H2342; assay: cells; assay type: functional, cell-based, Homo sapiens; conditions: Homo sapiens, NCI-H2342;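 further: growth inhibition of the cancer cell line, determined with a cell viability assay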
Description: SANGER: Inhibition of human NCI-H2342 cell growth in a cell viability assay.

[16] = test system: NCI-H28; assay: cells; assay type: functional, cell-based, Homo sapiens; conditions: Homo sapiens, NCI-H28;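 further: growth inhibition of human NCI-H28 cells, read out as cell viability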
Description: SANGER: Inhibition of human NCI-H28 cell growth in a cell viability assay.

[17] = test system: NCI-H524; assay: cells; assay type: functional, cell-based, Homo sapiens; conditions: Homo sapiens, NCI-H524;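 further: growth inhibition of human NCI-H524 cells, read out through a cell viability assay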
Description: SANGER: Inhibition of human NCI-H524 cell growth in a cell viability assay.

[18] = test system: NCI-H661; assay: cells; assay type: functional, cell-based, Homo sapiens; conditions: Homo sapiens, NCI-H661;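 further: cell viability assay read-out, IC50 being the concentration that inhibits growth of the cells by half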
Description: SANGER: Inhibition of human NCI-H661 cell growth in a cell viability assay.

[19] = test system: NCI-H719; assay: cells; assay type: functional, cell-based, Homo sapiens; conditions: Homo sapiens, NCI-H719;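 further: growth inhibition of the cultured cell line, read out with a viability assay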
Description: SANGER: Inhibition of human NCI-H719 cell growth in a cell viability assay.

[20] = test system: NCI-H889; assay: cells; assay type: functional, cell-based, Homo sapiens; conditions: Homo sapiens, NCI-H889;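 further: cell growth inhibition of the cell line, read out with a viability assay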
Description: SANGER: Inhibition of human NCI-H889 cell growth in a cell viability assay.

[21] = test system: OAW-42; assay: cells; assay type: functional, cell-based, Homo sapiens; conditions: Homo sapiens, OAW-42;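 further: growth inhibition of OAW-42 cells, read out with a cell viability assay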
Description: SANGER: Inhibition of human OAW-42 cell growth in a cell viability assay.

[22] = test system: OVCAR-8; assay: cells; assay type: functional, cell-based, Homo sapiens; conditions: Homo sapiens, OVCAR-8;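 further: growth inhibition of human OVCAR-8 cells, read out by a cell viability assay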
Description: SANGER: Inhibition of human OVCAR-8 cell growth in a cell viability assay.

[23] = test system: RERF-LC-MS; assay: cells; assay type: functional, cell-based, Homo sapiens; conditions: Homo sapiens, RERF-LC-MS;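 further: growth inhibition of human RERF-LC-MS cells, read out by a cell viability assay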
Description: SANGER: Inhibition of human RERF-LC-MS cell growth in a cell viability assay.

[24] = test system: RMG-I; assay: cells; assay type: functional, cell-based, Homo sapiens; conditions: Homo sapiens, RMG-I;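 further: growth inhibition of human RMG-I cells, read out with a cell viability assay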
Description: SANGER: Inhibition of human RMG-I cell growth in a cell viability assay.

[25] = test system: RPMI-2650; assay: cells; assay type: functional, cell-based, Homo sapiens; conditions: Homo sapiens, RPMI-2650
Description: SANGER: Inhibition of human RPMI-2650 cell growth in a cell viability assay.

[26] = test system: RT-112; assay: cells; assay type: functional, cell-based, Homo sapiens; conditions: Homo sapiens, RT-112
Description: SANGER: Inhibition of human RT-112 cell growth in a cell viability assay.

[27] = test system: RVH-421; assay: cells; assay type: functional, cell-based, Homo sapiens; conditions: Homo sapiens, RVH-421
Description: SANGER: Inhibition of human RVH-421 cell growth in a cell viability assay.

[28] = test system: SBC-5; assay: cells; assay type: functional, cell-based, Homo sapiens; conditions: Homo sapiens, SBC-5;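 further: cell viability assay read-out, IC50 is the concentration that inhibits growth of the cells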
Description: SANGER: Inhibition of human SBC-5 cell growth in a cell viability assay.

[29] = test system: SCC-25; assay: cells; assay type: functional, cell-based, Homo sapiens; conditions: Homo sapiens, SCC-25;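 further: growth inhibition of SCC-25 cells, measured with a cell viability assay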
Description: SANGER: Inhibition of human SCC-25 cell growth in a cell viability assay.

[30] = test system: SCC-9; assay: cells; assay type: functional, cell-based, Homo sapiens; conditions: Homo sapiens, SCC-9;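 further: Read-out is a cell viability assay, with values giving inhibition of cell growth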
Description: SANGER: Inhibition of human SCC-9 cell growth in a cell viability assay.

[31] = test system: SJRH30; assay: cells; assay type: functional, cell-based, Homo sapiens; conditions: Homo sapiens, SJRH30;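 further: growth inhibition of human SJRH30 cells, read out with a cell viability assay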
Description: SANGER: Inhibition of human SJRH30 cell growth in a cell viability assay.

[32] = test system: SU-DHL-1; assay: SANGER: Inhibition of human SU-DHL-1 cell growth in a cell viability assay.; assay type: functional, cell-based; conditions: Homo sapiens, SU-DHL-1
[33] = test system: SW1088; assay: cells; assay type: functional, cell-based, Homo sapiens; conditions: Homo sapiens, SW1088;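 further: growth inhibition of human SW1088 cells, read out by a cell viability assay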
Description: SANGER: Inhibition of human SW1088 cell growth in a cell viability assay.

[34] = test system: SW1783; assay: cells; assay type: functional, cell-based, Homo sapiens; conditions: Homo sapiens, SW1783
Description: SANGER: Inhibition of human SW1783 cell growth in a cell viability assay.

[35] = test system: SAOS-2; assay: cells; assay type: functional, cell-based, Homo sapiens; conditions: Homo sapiens, SAOS-2;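 further: growth inhibition of human Saos-2 cells determined by a cell viability assay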
Description: SANGER: Inhibition of human Saos-2 cell growth in a cell viability assay.

[36] = test system: 769-P; assay: cells; assay type: functional, cell-based, Homo sapiens; conditions: Homo sapiens, 769-P
Description: SANGER: Inhibition of human 769-P cell growth in a cell viability assay.

[37] = test system: 786-0; assay: cells; assay type: functional, cell-based, Homo sapiens; conditions: Homo sapiens
Description: SANGER: Inhibition of human 786-0 cell growth in a cell viability assay.

[38] = test system: CAL-12T; assay: cells; assay type: functional, cell-based, Homo sapiens; conditions: Homo sapiens, CAL-12T;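 further: growth inhibition of human CAL-12T cells, read out with a cell viability assay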
Description: SANGER: Inhibition of human CAL-12T cell growth in a cell viability assay.

[39] = test system: CAL-51; assay: cells; assay type: functional, cell-based, Homo sapiens; conditions: Homo sapiens, CAL-51;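 further: human CAL-51 cell line, growth inhibition read out via a cell viability assay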
Description: SANGER: Inhibition of human CAL-51 cell growth in a cell viability assay.

[40] = test system: TE-15; assay: cells; assay type: functional, cell-based, Homo sapiens; conditions: Homo sapiens, TE-15;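 further: cell viability readout of growth inhibition in TE-15 cells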
Description: SANGER: Inhibition of human TE-15 cell growth in a cell viability assay.

[41] = test system: TE-441-T; assay: cells; assay type: functional, cell-based, Homo sapiens; conditions: Homo sapiens, TE-441-T
Description: SANGER: Inhibition of human TE-441-T cell growth in a cell viability assay.

[42] = test system: U-698-M; assay: cells; assay type: functional, cell-based, Homo sapiens; conditions: Homo sapiens, U-698-M
Description: SANGER: Inhibition of human U-698-M cell growth in a cell viability assay.

## Nc1ccn([C@@H]2O[C@H](CO)[C@@H](O)C2(F)F)c(=O)n1 [GEMCITABINE]
[1]
  IC50: 120 nM
[2]
  IC50: 3.07 nM
[3]
  IC50: 405 nM
[4]
  IC50: 2.18 nM
[5]
  IC50: > 1020 nM
[6]
  IC50: 109 nM
[7]
  IC50: > 1020 nM
[8]
  IC50: 3.03 nM
[9]
  IC50: 83 nM
[10]
  IC50: 85.8 nM
[11]
  IC50: 8.47 nM
[12]
  IC50: 55.9 nM
[13]
  IC50: 461 nM
[14]
  IC50: > 1020 nM
[15]
  IC50: 7.63 nM
[16]
  IC50: > 1020 nM
[17]
  IC50: > 1020 nM
[18]
  IC50: 104 nM
[19]
  IC50: 892 nM
[20]
  IC50: > 1020 nM
[21]
  IC50: 92.1 nM
[22]
  IC50: 7.9 nM
[23]
  IC50: 177 nM
[24]
  IC50: > 1020 nM
[25]
  IC50: 17.6 nM
[26]
  IC50: < 4 nM
[27]
  IC50: > 1020 nM
[28]
  IC50: < 4 nM
[29]
  IC50: 289 nM
[30]
  IC50: > 1020 nM
[31]
  IC50: 106 nM
[32]
  IC50: 62.7 nM
[33]
  IC50: > 1020 nM
[34]
  IC50: < 4 nM
[35]
  IC50: > 1020 nM
[36]
  IC50: < 4 nM
[37]
  IC50: < 4 nM
[38]
  IC50: 1.08 nM
[39]
  IC50: 191 nM
[40]
  IC50: < 4 nM
[41]
  IC50: > 1020 nM
[42]
  IC50: 345 nM

## COc1cccc2c1C(=O)c1c(O)c3c(c(O)c1C2=O)C[C@@](O)(C(=O)CO)C[C@@H]3O[C@H]1C[C@H](N)[C@H](O)[C@H](C)O1 [DOXORUBICIN]
[1]
  IC50: 195 nM
[2]
  IC50: 78.9 nM
[3]
  IC50: 861 nM
[4]
  IC50: 71.6 nM
[5]
  IC50: 632 nM
[6]
  IC50: 109 nM
[7]
  IC50: 541 nM
[8]
  IC50: 26.8 nM
[9]
  IC50: 34.7 nM
[10]
  IC50: 193 nM
[11]
  IC50: 27.8 nM
[12]
  IC50: 103 nM
[13]
  IC50: 293 nM
[14]
  IC50: 31.9 nM
[15]
  IC50: 22.9 nM
[16]
  IC50: > 1020 nM
[17]
  IC50: > 1020 nM
[18]
  IC50: 49 nM
[19]
  IC50: 39.7 nM
[20]
  IC50: > 1020 nM
[21]
  IC50: 154 nM
[22]
  IC50: 61.9 nM
[23]
  IC50: 425 nM
[24]
  IC50: 514 nM
[25]
  IC50: 13.7 nM
[26]
  IC50: 32.9 nM
[27]
  IC50: 169 nM
[28]
  IC50: 20.7 nM
[29]
  IC50: 154 nM
[30]
  IC50: > 1020 nM
[31]
  IC50: 173 nM
[32]
  IC50: 103 nM
[33]
  IC50: > 1020 nM
[34]
  IC50: 98 nM
[35]
  IC50: 330 nM
[36]
  IC50: 20.8 nM
[37]
  IC50: 8.47 nM
[38]
  IC50: 20.6 nM
[39]
  IC50: 17.3 nM
[40]
  IC50: 24.1 nM
[41]
  IC50: 89.8 nM
[42]
  IC50: 139 nM
